Measurements as given in publication PMC10145367, “Acute and Transgenerational Effects of Non-Steroidal Anti-Inflammatory Drugs on Daphnia magna” (Toxics, 2023).
Converted amounts (≈) assume the structure as drawn. Read-outs that look alike come from different tables or passages of the source.

Tests used:
acid phosphatase (ACP) [1] = test system: acid phosphatase (ACP); design: method as in PMID 36835510; settings: chronic exposure of daphnids; ref [30]; cited from earlier work
Daphnia magna [2] = settings: cited from earlier work
[3] = test system: alkaline phosphatase (ALP); design: method as in PMID 36835510; settings: chronic exposure of daphnids; ref [30]; cited from earlier work
peptidase (PEP) [4] = settings: cited from earlier work
D. magna [5] = test system: D. magna; design: method as in PMID 27234514, PMID 19336980; settings: after 24 h of exposure; ref [3],[5]; cited from earlier work
acid phosphatase (ACP) [6] = experiment: Acid phosphatase activity in daphnid homogenate after chronic/transgenerational exposure; format: in vivo, Daphnia magna
Daphnia magna [7] = experiment: Feeding assay (ingestion of fluorescent microparticles); format: in vivo; settings: neonates, 1 mg/L for 24 h
Procedure: After 24 h, twenty […] transferred in a 12-well plate with 6 mL OECD containing the carboxylate-modified polystyrene, fluorescent red microparticles (2.0 μm mean particle size) at a concentration of 13 mg/L. The animals were exposed to the microplastic for up to 90 min, and media was collected every 15 min to estimate the removed microparticles by fluorescence at Ex 560 Em 590 nm using a TECAN plate reader. The concentration of microparticles in the media was optimized to ensure an excess of microparticles for the accurate quantification of ingestion. Furthermore, we have extensively tested these particles, which show no toxicity to the […] for the short exposure periods used. We performed control experiments with neonates, as they would be more sensitive, for even up to 10 h to microplastics at even higher concentrations (up to 52 mg/L), and all animals from all experiments following the feeding assay were alive and healthy. Fluorescence was expressed to the amount of ingested microparticles using a standard curve. To confirm the ingestion of microparticles in the gut of […], animals were imaged with a stereoscope and fluorescence microscopy using the TRITC filter for carboxyl functionalized particles. […] The animals were fed daily with 2 mL of fresh algae (Chlamydomonas reinhardtii) with a concentration of 6 million cells/mL. […]

Oryzias latipes = test system: Oryzias latipes; design: method as in PMID 27234514, PMID 19336980; settings: after 24 h of exposure; ref [3],[5]; cited from earlier work
[8] = test system: male zebrafish (Danio rerio); design: method as in PMID 29027214; settings: 96 h, ref [13]; cited from earlier work
peptidase (PEP) [9] = experiment: Peptidase activity in daphnid homogenate after chronic/transgenerational exposure; format: in vivo, Daphnia magna
Daphnia magna [10] = experiment: Acute toxicity (immobilization) of neonates, 24 h toxicity curves; settings: for EC50: Daphnia magna, 24 h; for EC1 / EC5 / EC10 / EC20: neonates, 24 h exposure, immobilization
[11] = test system: glutathione-S-transferase (GST)
Procedure: (§1) Chronic exposure was performed at 1 mg/L of each NSAID and their 1:1 mixture separately, which was selected as a non-lethal concentration. For enzyme activities in chronic and transgenerational exposures, neonates were cultured for two consecutive generations and following a 21-day recovery period (Figure 1B). […] Media and NSAIDs were renewed twice a week. Although the concentration of NSAIDs was not measured throughout the exposure, their renewal twice a week was sufficient to exert their action. […] Daphnids were fed daily with 2 mL fresh algae (C. reinhardtii) with a concentration of 6 million cells/mL, and a seaweed extract (Ascophylum nodosum) was supplemented only on the days of media change.
(§2) Five 7, 14, and 21-day-old animals were used per biological replicate and homogenized in 0.5 mL ddH2O using a pestle homogenizer. The homogenate was cleared by centrifugation (12,000× g for 5 min at 5 °C), and the clear supernatant was collected and used to assess the enzyme activity as described elsewhere. 200 μL appropriately diluted sample in buffer was assessed for the activity of phosphatases (in 100 mM acetic acid pH 4.5 for acid phosphatase or 100 mM boric acid pH 9.8 for alkaline phosphatase) using 50 μL of the substrate p-nitrophenyl phosphate (8 mM) and monitoring the production of p-nitrophenol at 405 nm after its alkalinization (with 50 μL 4M NaOH). In addition, the activities of β-galactosidase and lipase were measured with the same experimental conditions by the generation of nitrophenol from the catalysis of o-nitrophenyl-β-galactoside or p-nitrophenyl butyrate, respectively, but in phosphate buffer pH 7.2. Glutathione-S-transferase (GST) activity was assessed by the reaction of reduced glutathione with 1-chloro-2,4-dinitrobenzene. 200 μL appropriately diluted sample in phosphate buffer pH 7.2 was mixed with 50 μL 2 mM CDNB, and 6 mM reduced glutathione, and the formation of the complex was measured continuously at 340 nm and converted to units of activity with the extinction coefficient. Protein was quantified by an ultrasensitive Bradford protocol to normalize the results.

[12] = test system: alkaline phosphatase (ALP)
Procedure: as §1, §2

β-galactosidase (β-gal) = test system: β-galactosidase (β-gal)
Procedure: as §1, §2

Thamnocephalus platyurus = settings: after 24 h of exposure; ref [3],[5]; cited from earlier work
lipase (LIP) = experiment: Lipase activity in daphnid homogenate after chronic/transgenerational exposure; format: in vivo, Daphnia magna
patients = test system: patients; design: method as in PMID 26865183; settings: patients receiving it; ref [11]; cited from earlier work
GST [13] = settings: 28-day exposure to 25 mg/L; ref [53]; cited from earlier work
[14] = cited from earlier work
D. magna [15] = settings: ref [21], cited from earlier work
GST [16] = test system: GST; design: method as in PMID 32259738; settings: exposure for 14 days; ref [71]; cited from earlier work
[17] = test system: glutathione-S-transferase (GST); design: method as in PMID 32806449; settings: intermediate concentrations (1.2 and 6 μg/L); ref [67]; cited from earlier work
[18] = 1 mg/L, age 7 days, first generation
[19] = 1 mg/L, age 14 days, first generation
[20] = 1 mg/L, age 21 days, 2nd generation
[21] = 1 mg/L, age 21 days, first generation
[22] = age 21 days, 3rd generation recovery in clean OECD media after two generations at 1 mg/L

## O=C(O)Cc1ccccc1Nc1c(Cl)cccc1Cl [Diclofenac]
Acid phosphatase (ACP) [1]
  effect on activity of ACP: reduced
Daphnia magna [2]; neonates of D. magna, ref [67],[68]
  effect on feeding rate: reduce the feeding rate
[3]
  effect on activity of ALP: reduced
Peptidase (PEP) [4]; chronic exposure of daphnids, ref [30]
  effect on activity of PEP: increasing

## COc1ccc2c(c1)c(CC(=O)O)c(C)n2C(=O)c1ccc(Cl)cc1 [Indomethacin]
D. magna [5]
  lethal concentration: 22.38 mg/L
Acid phosphatase (ACP) [6]; [18]
  ACP enzyme activity: 6.82 ± 0.51 units/mg protein
Acid phosphatase (ACP) [6]; [19]
  ACP enzyme activity: 6.02 ± 0.71 units/mg protein
Acid phosphatase (ACP) [6]; [20]
  ACP enzyme activity: 2.67 ± 0.15 units/mg protein
Acid phosphatase (ACP) [6]; [21]
  ACP enzyme activity: 2.84 ± 0.13 units/mg protein
  change of ACP activity compared with DMSO: −10%
Acid phosphatase (ACP) [6]; [22]
  ACP enzyme activity: 3.21 ± 0.28 units/mg protein
Daphnia magna [7]
  reduction of feeding rate compared to DMSO: 35%
Oryzias latipes
  lethal concentration: 81.92 mg/L
[8]
  EC50: 76.30 µg/mL (≈ 213 µM)
Peptidase (PEP) [9]; [18]
  PEP enzyme activity: 27.26 ± 5.01 units/mg protein
Peptidase (PEP) [9]; [19]
  PEP enzyme activity: 1.94 ± 0.06 units/mg protein
Peptidase (PEP) [9]; [20]
  PEP enzyme activity: 6.81 ± 0.26 units/mg protein
  change of PEP activity compared with DMSO: −14%
Peptidase (PEP) [9]; [21]
  PEP enzyme activity: 10.82 ± 0.6 units/mg protein
  change of PEP activity compared with DMSO: +16%
Peptidase (PEP) [9]; [22]
  PEP enzyme activity: 5.33 ± 0.49 units/mg protein
Daphnia magna [10]
  EC50: 17.5 µg/mL (≈ 48.8 µM)
  EC1: 6.61 mg/L
  EC5: 9.37 mg/L
  EC10: 10.97 µg/mL (≈ 30.7 µM)
  EC20: 13.02 µg/mL (≈ 36.4 µM)
[11]; [18]
  GST enzyme activity: 107.9 ± 11.6 munits/mg protein
[11]; [19]
  GST enzyme activity: 144.7 ± 5.4 munits/mg protein
[11]; [20]
  GST enzyme activity: 94.6 ± 2.9 munits/mg protein
  change of GST activity compared with DMSO: −9%
[11]; [21]
  GST enzyme activity: 52.3 ± 1.5 munits/mg protein
[11]; [22]
  GST enzyme activity: 154.7 ± 4.2 munits/mg protein
[12]; [18]
  ALP enzyme activity: 6.22 ± 0.21 units/mg protein
  change of ALP activity compared with DMSO: −13%
[12]; [19]
  ALP enzyme activity: 3.05 ± 0.29 units/mg protein
[12]; [20]
  ALP enzyme activity: 3.8 ± 0.18 units/mg protein
[12]; [21]
  ALP enzyme activity: 5.05 ± 0.17 units/mg protein
[12]; [22]
  ALP enzyme activity: 4.16 ± 0.24 units/mg protein
β-galactosidase (β-gal); [18]
  change of β-gal activity compared with DMSO: −40%
  β-gal enzyme activity: 0.91 ± 0.14 units/mg protein
β-galactosidase (β-gal); [19]
  β-gal enzyme activity: 2.23 ± 0.39 units/mg protein
β-galactosidase (β-gal); [20]
  β-gal enzyme activity: 4.7 ± 0.23 units/mg protein
β-galactosidase (β-gal); [21]
  change of β-gal activity compared with DMSO: +11%
  β-gal enzyme activity: 5.93 ± 0.19 units/mg protein
β-galactosidase (β-gal); [22]
  β-gal enzyme activity: 5.03 ± 0.44 units/mg protein
Thamnocephalus platyurus
  lethal concentration: 16.14 mg/L
Lipase (LIP); [18]
  LIP enzyme activity: 72.94 ± 11.09 units/mg protein
  change of LIP activity compared with DMSO: −47%
Lipase (LIP); [19]
  LIP enzyme activity: 193.84 ± 25.81 units/mg protein
Lipase (LIP); [20]
  LIP enzyme activity: 56.41 ± 3.09 units/mg protein
  change of LIP activity compared with DMSO: −15%
Lipase (LIP); [21]
  LIP enzyme activity: 90.86 ± 0.42 units/mg protein
Lipase (LIP); [22]
  LIP enzyme activity: 51.19 ± 2.04 units/mg protein
patients
  patients with adverse effects: 30–60%

## CC(C)Cc1ccc(C(C)C(=O)O)cc1 (stereo not drawn) [Ibuprofen]
GST [13]
  effect on activity of GST: increase in the activity of GST
[14]; for 5 months, ref [39]
  average strength maintained: > 90%
[14]; room temperature, ref [37],[38]
  time stable: 15 days
D. magna [15]; neonates exposed to 20 mg/L and 40 mg/L for 14 days
  survival: unaffected
D. magna [15]; neonates exposed to 80 mg/L for 14 days
  reduction of survival: 19%
Acid phosphatase (ACP) [6]; [18]
  ACP enzyme activity: 8.14 ± 0.33 units/mg protein
Acid phosphatase (ACP) [6]; [20]
  ACP enzyme activity: 2.78 ± 0.21 units/mg protein
Acid phosphatase (ACP) [6]; [21]
  ACP enzyme activity: 3.09 ± 0.04 units/mg protein
Acid phosphatase (ACP) [6]; [22]
  ACP enzyme activity: 3.24 ± 0.47 units/mg protein
Daphnia magna [7]
  reduction of feeding rate compared to DMSO: 30%
Peptidase (PEP) [9]; [18]
  PEP enzyme activity: 29.54 ± 7.34 units/mg protein
Peptidase (PEP) [9]; [19]
  PEP enzyme activity: 1.93 ± 0.27 units/mg protein
Peptidase (PEP) [9]; [21]
  PEP enzyme activity: 10.52 ± 1.39 units/mg protein
Peptidase (PEP) [9]; [22]
  PEP enzyme activity: 4.61 ± 0.35 units/mg protein
GST [16]
  effect on activity of GST: reduced the activity of GST
Daphnia magna [10]
  EC50: 17.8 µg/mL (≈ 86.3 µM)
  EC1: 8.62 mg/L
  EC5: 11.19 mg/L
  EC10: 12.59 µg/mL (≈ 61 µM)
  EC20: 14.3 µg/mL (≈ 69.3 µM)
[11]; [18]
  GST enzyme activity: 95.6 ± 10 munits/mg protein
[11]; [19]
  GST enzyme activity: 151.7 ± 11.7 munits/mg protein
[11]; [20]
  GST enzyme activity: 123.5 ± 2.1 munits/mg protein
  change of GST activity compared with DMSO: +18%
[11]; [21]
  GST enzyme activity: 67.6 ± 4.4 munits/mg protein
[12]; [18]
  ALP enzyme activity: 6.55 ± 0.26 units/mg protein
[12]; [19]
  ALP enzyme activity: 2.63 ± 0.14 units/mg protein
[12]; [20]
  ALP enzyme activity: 3.27 ± 0.15 units/mg protein
  change of ALP activity compared with DMSO: −10%
β-galactosidase (β-gal); [18]
  change of β-gal activity compared with DMSO: −17%
  β-gal enzyme activity: 1.26 ± 0.06 units/mg protein
β-galactosidase (β-gal); [19]
  β-gal enzyme activity: 2.08 ± 0.75 units/mg protein
β-galactosidase (β-gal); [20]
  change of β-gal activity compared with DMSO: −17%
  β-gal enzyme activity: 3.93 ± 0.22 units/mg protein
β-galactosidase (β-gal); [21]
  β-gal enzyme activity: 5.13 ± 0.25 units/mg protein
Lipase (LIP); [18]
  LIP enzyme activity: 123.76 ± 2.26 units/mg protein
  change of LIP activity compared with DMSO: −10%
Lipase (LIP); [19]
  LIP enzyme activity: 148.12 ± 37.62 units/mg protein
Lipase (LIP); [20]
  LIP enzyme activity: 47.53 ± 1.66 units/mg protein
  change of LIP activity compared with DMSO: −28%
Lipase (LIP); [21]
  LIP enzyme activity: 78.43 ± 4.27 units/mg protein
Lipase (LIP); [22]
  LIP enzyme activity: 53.32 ± 6.51 units/mg protein

## CC(C(=O)O)c1cccc(C(=O)c2ccccc2)c1 (stereo not drawn) [ketoprofen]
Daphnia magna [2]; D5 daphnids, ref [67]
  effect on feeding: did not affect the feeding
[17]
  effect on activity of GST: increased the activity of GST

## CC(=O)Oc1ccccc1C(=O)O [acetylsalicylic acid]
Peptidase (PEP) [4]; acute exposure of daphnids, ref [28]
  effect on activity of PEP: decreased
